Measured values taken from PubChem BioAssay (NCI).
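Cells were grown in 96-well plates and exposed to each compound for 48 hours at five concentrations; endpoints were interpolated linearly between bracketing concentrations, or set to the highest concentration if not reached. GI50 is the concentration that inhibits growth by half. The concentration for full growth arrest is given as TGI.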

Tests used:
Assay in all cases: NCI tumour cell line growth inhibition, 48 h
SNB-75 CNS = test system: SNB-75 CNS
DU-145 prostate = test system: DU-145 prostate
MDA-MB-231 breast = test system: MDA-MB-231 breast
TK-10 renal = test system: TK-10 renal
NCI-H522 lung = test system: NCI-H522 lung
SN12C renal = test system: SN12C renal
MOLT-4 leukemia = test system: MOLT-4 leukemia
CCRF-CEM leukemia = test system: CCRF-CEM leukemia
P388 leukemia = test system: P388 leukemia
M19-MEL melanoma = test system: M19-MEL melanoma
SN12K1 renal = test system: SN12K1 renal
DMS 114 small cell lung = test system: DMS 114 small cell lung
XF 498 CNS = test system: XF 498 CNS
SNB-78 CNS = test system: SNB-78 CNS
P388/ADR leukemia = test system: P388/ADR leukemia
KM20L2 colon = test system: KM20L2 colon

SMILES | TGI (SNB-75 CNS) [µM] | TGI (DU-145 prostate) [µM] | TGI (MDA-MB-231 breast) [µM] | TGI (TK-10 renal) [µM] | TGI (NCI-H522 lung) [µM] | TGI (SN12C renal) [µM] | TGI (MOLT-4 leukemia) [µM] | TGI (CCRF-CEM leukemia) [µM] | TGI (P388 leukemia) [µM] | TGI (M19-MEL melanoma) [µM] | TGI (SN12K1 renal) [µM] | TGI (DMS 114 small cell lung) [µM] | TGI (XF 498 CNS) [µM] | TGI (SNB-78 CNS) [µM] | TGI (P388/ADR leukemia) [µM] | TGI (KM20L2 colon) [µM] | GI50 (MOLT-4 leukemia) [µM] | GI50 (CCRF-CEM leukemia) [µM] | GI50 (DU-145 prostate) [µM] | GI50 (NCI-H522 lung) [µM]
CC(Oc1ccc(Cl)cc1Cl)C(=O)NN1C(=O)CC(=O)NC1=S (configuration not stated) | > 100 | > 100 | > 100 | > 100 | > 100 | > 100 | – | – | – | – | – | – | – | – | – | – | – | – | – | –
CC(C)(C)c1cc(C(C)(C)C)c(SSc2c(C(C)(C)C)cc(C(C)(C)C)c(O)c2O)c(O)c1O | 41.9 | – | 28 | – | 16.6 | 25.3 | 10.4 | 7.5 | – | – | – | – | – | – | – | – | – | – | – | –
COc1cc(C2c3cc4c(cc3[C@@H](Nc3cnc5ccccc5c3)C3COC(=O)[C@H]23)OCO4)cc(OC)c1O (some centres not stated) | – | – | – | – | 3.19 | – | – | 0.463 | 0.374 | 3.28 | 2.08 | 1.82 | 4.66 | > 100 | 1.36 | – | – | – | – | –
O=C(Cn1c(C(=O)/C=C/c2ccc(Cl)c(Cl)c2)nc2ccccc21)c1ccccc1 | – | > 100 | 70.5 | 76.6 | – | 34.4 | > 100 | 33.3 | – | – | – | – | – | – | – | – | – | – | – | –
COc1ccc2[nH]c(=O)cc(C)c2c1[N+](=O)[O-] | 55.7 | – | – | > 100 | > 100 | > 100 | > 100 | > 100 | – | > 100 | – | > 100 | > 100 | > 100 | – | > 100 | – | – | – | –
COc1ccc(C(=O)c2[nH]c(Nc3cc(C)ccn3)c(C(=S)Nc3ccccc3)c2N)cc1 | 50.9 | > 100 | 44.5 | 61.5 | 29.9 | 39.2 | > 100 | – | – | – | – | – | – | – | – | – | – | – | – | –
CC1(c2cccc(C(F)(F)F)c2)CC(c2cccc(C(F)(F)F)c2)=C(C#N)C(=C(C#N)C#N)N1 (configuration not stated) | 33.6 | 31 | 40.7 | 30.8 | – | 32.8 | 38.5 | 24.1 | – | – | – | – | – | – | – | – | – | – | – | –
CC1=NN(c2ccccc2Cl)C2(C1)C(Cl)C(=O)N2c1nc2ccccc2s1 (configuration not stated) | 89.9 | > 100 | > 100 | > 100 | 35 | > 100 | 91.6 | – | – | – | – | – | – | – | – | – | – | – | – | –
Nc1nc(N)c2ncn(Cc3ccccc3CO)c2n1 | > 100 | > 100 | > 100 | > 100 | > 100 | > 100 | > 100 | > 100 | – | – | – | – | – | – | – | – | – | – | – | –
COC(=O)/C=C1\C(=O)Nc2ccc(Br)cc21 | 3.87 | 4.38 | 6.64 | 3.09 | 2.34 | 3 | 4.01 | 1.17 | – | – | – | – | – | – | – | – | – | – | – | –
COc1cnc2oc3ccc(O)cc3c2c1-c1ccccc1 | > 100 | > 100 | – | > 100 | > 100 | > 100 | > 100 | > 100 | – | – | – | – | – | – | – | – | – | – | – | –
O=c1c2cc([N+](=O)[O-])ccc2[nH]n1Cc1ccccc1Cl | > 100 | > 100 | > 100 | 99.9 | > 100 | > 100 | > 100 | > 100 | – | – | – | – | – | – | – | – | – | – | – | –
CS(C)(=O)=Nn1c(=O)n2n(c1=O)[C@H]1CC[C@@H]2C1 | > 100 | > 100 | > 100 | > 100 | > 100 | – | > 100 | > 100 | – | – | – | – | – | – | – | – | – | – | – | –
COc1cc2c(/C=C3/C(=O)Nc4cc(C)c(O)cc43)c(Cl)[nH]c2cc1C | 7.6 | 10.5 | 8.99 | 7.22 | 11.1 | 6.07 | 0.835 | 2.02 | – | – | – | – | – | – | – | – | – | – | – | –
O=C1C=CC2(C=C1)O[C@H](CCc1ccccc1)[C@@H](CCc1ccccc1)O2 | > 100 | > 100 | > 100 | > 100 | – | > 100 | > 100 | > 100 | – | – | – | – | – | – | – | – | – | – | – | –
C=CCn1c(C)nc2cc(Nc3nc(N4CCCC4)nc4nc[nH]c34)ccc21 | – | > 100 | – | – | > 100 | – | > 100 | > 100 | – | – | – | – | – | – | – | – | > 100 | 54.5 | > 100 | > 100
COc1ccc(/C=C2\CC3C4CC=C5C[C@@H](N6CCCC6)CC[C@]5(C)C4CC[C@]3(C)[C@H]2O)cc1OC (some centres not stated) | 22.9 | 22.4 | 15.1 | 19.9 | 16 | 18.3 | 38.3 | 50 | – | – | – | – | – | – | – | – | – | – | – | –
Cc1c2cnccc2c(C)c2c1c1ccccc1n2CCCCCCCl | > 31.6 | – | – | – | > 50 | > 50 | > 50 | > 50 | 32.6 | > 50 | > 50 | > 50 | > 50 | 49.8 | > 50 | > 50 | – | – | – | –
Nc1nc2cc(COc3ccc(C(=O)O)cc3)ccc2nc1-c1ccccc1 | > 10 | > 10 | > 10 | > 10 | > 10 | > 10 | > 10 | > 10 | – | – | – | – | – | – | – | – | – | – | – | –
COc1ccc(C)cc1NC(=S)N/N=C/c1ccco1 | > 100 | > 100 | – | – | 69.2 | > 100 | > 100 | > 100 | – | – | – | – | – | – | – | – | – | – | – | –
O=C1Nc2ccccc2C1(O)Cc1ccccn1 (configuration not stated) | > 100 | > 100 | > 100 | > 100 | > 100 | > 100 | – | > 100 | – | – | – | – | – | – | – | – | – | – | – | –
O=C1Sc2sc(=S)sc2SC1c1ccccc1 (configuration not stated) | > 81.4 | – | – | – | 19.5 | > 100 | > 100 | 91.5 | > 67.2 | > 100 | > 65.2 | > 100 | > 79.1 | > 75.8 | > 67.7 | > 100 | – | – | – | –
C=C1C(=O)OC2/C=C(CO)/C=C\C3OC3(C)CC(OC(=O)/C(C)=C/COC(C)=O)C12 (configuration not stated) | 20.7 | 30.2 | 9.13 | 14 | 1.81 | 5.63 | 5.49 | – | – | 4.15 | – | 10.9 | 6.47 | 23.4 | – | 17 | – | – | – | –
COc1cc2c(cc1OCCCN1CCOCC1)N=C[C@@H]1CCCN1C2=O | – | 76.9 | > 100 | > 100 | 3.97 | > 100 | > 100 | 25.3 | – | – | – | – | – | – | – | – | – | – | – | –
COc1cccc(/C=N/[N+](C)(C)C)c1O | > 10 | > 10 | > 10 | > 10 | > 10 | > 10 | > 10 | > 10 | – | – | – | – | – | – | – | – | – | – | – | –
